Laboratory results: patent publication US20230024096A1, “BIFUNCTIONAL COMPOUNDS FOR THE TREATMENT OF CANCER” (Hoffmann-La Roche Inc., priority 2019, published 2023)

Biological target: T1, SMARCA2 (Homo sapiens, UniProt P51531)
T1 construct: endogenous in cells; host or cells: HT1080 (CRISPR HiBiT knock-in clone, generated in house)
Assay: SMARCA2 HiBiT degradation assay (cellular)
Format: cell-based
Settings: table head names A549; for DC50: 6 h incubation, HiBiT-tagged SMARCA2, luminescence read-out, read-out: HiBit A549 SMARCA2 IP (nM) 6 h; for Emax: A549, 6 h incubation, Emax = amount of residual protein remaining in the cell following compound treatment

T1 sequence (P51531 whole entry): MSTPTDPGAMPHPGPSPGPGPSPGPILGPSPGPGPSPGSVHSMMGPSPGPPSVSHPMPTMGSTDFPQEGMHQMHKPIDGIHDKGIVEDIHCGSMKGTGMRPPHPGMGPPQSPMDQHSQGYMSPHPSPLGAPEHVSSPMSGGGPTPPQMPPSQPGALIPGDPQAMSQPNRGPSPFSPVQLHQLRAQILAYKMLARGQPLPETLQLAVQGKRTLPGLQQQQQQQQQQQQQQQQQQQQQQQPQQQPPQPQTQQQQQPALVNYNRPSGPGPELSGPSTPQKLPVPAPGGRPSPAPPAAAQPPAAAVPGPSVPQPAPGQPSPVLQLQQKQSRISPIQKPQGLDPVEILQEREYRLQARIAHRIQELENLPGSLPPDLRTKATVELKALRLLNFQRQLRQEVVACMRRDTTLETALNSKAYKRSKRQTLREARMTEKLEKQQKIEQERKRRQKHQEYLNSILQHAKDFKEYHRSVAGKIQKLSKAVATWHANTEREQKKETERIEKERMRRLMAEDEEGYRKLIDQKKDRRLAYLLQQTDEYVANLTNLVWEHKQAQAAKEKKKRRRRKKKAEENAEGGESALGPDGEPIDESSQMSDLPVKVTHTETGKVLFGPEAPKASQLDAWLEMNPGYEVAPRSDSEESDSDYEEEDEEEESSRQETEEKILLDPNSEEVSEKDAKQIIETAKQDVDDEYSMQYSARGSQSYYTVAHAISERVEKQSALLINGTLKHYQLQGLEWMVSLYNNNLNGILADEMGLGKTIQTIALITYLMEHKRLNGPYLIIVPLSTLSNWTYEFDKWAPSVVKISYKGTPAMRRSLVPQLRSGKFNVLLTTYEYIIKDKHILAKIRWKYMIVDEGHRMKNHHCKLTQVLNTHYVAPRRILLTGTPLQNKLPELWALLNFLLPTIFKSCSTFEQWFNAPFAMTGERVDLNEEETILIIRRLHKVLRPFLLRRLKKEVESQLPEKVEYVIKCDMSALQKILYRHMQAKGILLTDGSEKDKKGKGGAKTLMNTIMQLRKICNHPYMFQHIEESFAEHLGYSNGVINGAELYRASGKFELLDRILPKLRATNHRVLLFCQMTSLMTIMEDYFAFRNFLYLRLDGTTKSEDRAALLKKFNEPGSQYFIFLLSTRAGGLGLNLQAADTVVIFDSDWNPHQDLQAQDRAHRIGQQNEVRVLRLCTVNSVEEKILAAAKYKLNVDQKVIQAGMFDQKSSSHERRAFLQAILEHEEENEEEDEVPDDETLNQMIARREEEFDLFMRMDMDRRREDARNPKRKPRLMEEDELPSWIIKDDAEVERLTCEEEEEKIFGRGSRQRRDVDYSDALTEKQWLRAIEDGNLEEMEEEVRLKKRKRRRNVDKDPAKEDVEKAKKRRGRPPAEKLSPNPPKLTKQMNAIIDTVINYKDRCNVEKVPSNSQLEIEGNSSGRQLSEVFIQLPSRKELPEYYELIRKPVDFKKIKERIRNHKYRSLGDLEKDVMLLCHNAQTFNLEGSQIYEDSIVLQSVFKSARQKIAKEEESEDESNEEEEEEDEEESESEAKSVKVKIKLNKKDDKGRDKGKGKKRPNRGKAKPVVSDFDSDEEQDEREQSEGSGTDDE

| SMILES | DC50 | Emax |
| --- | --- | --- |
| Nc1nnc(-c2ccccc2O)cc1N1CC2CCC(C1)N2c1cccc(CC2CCN(C(=O)CCC3CCN(c4ccc5c(c4)C(=O)N(C4CCC(=O)NC4=O)C5=O)CC3)CC2)c1 (racemic) [Example 59, rac-5-[4-[3-[4-[[3-[3-[3-amino-6-(2-hydroxyphenyl)pyridazin-4-yl]-3,8-diazabicyclo[3.2.1]octan-8-yl]phenyl]methyl]-1-piperidyl]-3-oxo-propyl]-1-piperidyl]-2-(2,6-dioxo-3-piperidyl)isoindoline-1,3-dione] | 129 nM | 65% |
| Nc1nnc(-c2ccccc2O)cc1N1CC2CCC(C1)N2c1cccc(OCCN2CCN(C(=O)C3CN(c4ccc5c(c4)C(=O)N(C4CCC(=O)NC4=O)C5=O)C3)CC2)c1 (racemic) [Example 60, rac-5-[3-[4-[2-[3-[3-[3-amino-6-(2-hydroxyphenyl)pyridazin-4-yl]-3,8-diazabicyclo[3.2.1]octan-8-yl]phenoxy]ethyl]piperazine-1-carbonyl]azetidin-1-yl]-2-(2,6-dioxo-3-piperidyl)isoindoline-1,3-dione] | 18 nM | 32% |
| Nc1nnc(-c2ccccc2O)cc1N1CC2CCC(C1)N2c1cccc(OCCN2CCN(C(=O)C3CC4(C3)CN(c3ccc5c(c3)C(=O)N(C3CCC(=O)NC3=O)C5=O)C4)CC2)c1 (racemic) [Example 61, rac-5-[6-[4-[2-[3-[3-[3-amino-6-(2-hydroxyphenyl)pyridazin-4-yl]-3,8-diazabicyclo[3.2.1]octan-8-yl]phenoxy]ethyl]piperazine-1-carbonyl]-2-azaspiro[3.3]heptan-2-yl]-2-(2,6-dioxo-3-piperidyl)isoindoline-1,3-dione] | 100 nM | 53% |
| Nc1nnc(-c2ccccc2O)cc1O[C@@H]1CCCN(c2ccc(N3CCN(C(=O)CCCCCCCCn4cc(CNc5cccc6c5C(=O)N(C5CCC(=O)NC5=O)C6=O)nn4)CC3)cc2)C1 (mixture of isomers) [Example 62, 2-(2,6-dioxo-3-piperidyl)-4-[[1-[9-oxo-9-[4-[4-[rac-(3R)-3-[3-amino-6-(2-hydroxyphenyl)pyridazin-4-yl]oxy-1-piperidyl]phenyl]piperazin-1-yl]nonyl]triazol-4-yl]methylamino]isoindoline-1,3-dione] | 124 nM | 33% |
| Nc1nnc(-c2ccccc2O)cc1O[C@H]1CCCN(c2ccc(N3CCN(CCCCCCCCCn4cc(CNc5cccc6c5C(=O)N(C5CCC(=O)NC5=O)C6=O)nn4)CC3)cc2)C1 (mixture of isomers) [Example 66, 2-(2,6-dioxo-3-piperidyl)-4-[[1-[9-[4-[4-[rac-(3S)-3-[3-amino-6-(2-hydroxyphenyl)pyridazin-4-yl]oxy-1-piperidyl]phenyl]piperazin-1-yl]nonyl]triazol-4-yl]methylamino]isoindoline-1,3-dione] | 144 nM | 60% |
| Nc1nnc(-c2ccccc2O)cc1N1CC2CCC(C1)N2c1cccc(OCCN2CCN(C(=O)N3CC4(C3)CN(c3ccc5c(c3)C(=O)N(C3CCC(=O)NC3=O)C5=O)C4)CC2)c1 (racemic) [Example 69, rac-5-[2-[4-[2-[3-[3-[3-amino-6-(2-hydroxyphenyl)pyridazin-4-yl]-3,8-diazabicyclo[3.2.1]octan-8-yl]phenoxy]ethyl]piperazine-1-carbonyl]-2,6-diazaspiro[3.3]heptan-6-yl]-2-(2,6-dioxo-3-piperidyl)isoindoline-1,3-dione] | 16 nM | 48% |
| Nc1nnc(-c2ccccc2O)cc1N1CC2CCC(C1)N2c1cccc(CC2CCN(C(=O)C3CCN(c4ccc5c(c4)C(=O)N(C4CCC(=O)NC4=O)C5=O)CC3)CC2)c1 (racemic) [Example 70, rac-5-[4-[4-[[3-[3-[3-amino-6-(2-hydroxyphenyl)pyridazin-4-yl]-3,8-diazabicyclo[3.2.1]octan-8-yl]phenyl]methyl]piperidine-1-carbonyl]-1-piperidyl]-2-(2,6-dioxo-3-piperidyl)isoindoline-1,3-dione] | 40 nM | 42% |
| Nc1nnc(-c2ccccc2O)cc1N1CC2CCC(C1)N2c1cccc(OCCN2CCN(C(=O)CN3CCC(c4ccc(NC5CCC(=O)NC5=O)cc4)CC3)CC2)c1 (racemic) [Example 79, rac-3-[4-[1-[2-[4-[2-[3-[3-[3-amino-6-(2-hydroxyphenyl)pyridazin-4-yl]-3,8-diazabicyclo[3.2.1]octan-8-yl]phenoxy]ethyl]piperazin-1-yl]-2-oxo-ethyl]-4-piperidyl]anilino]piperidine-2,6-dione] | 19 nM | 46% |
| Nc1nnc(-c2ccccc2O)cc1N1CC2CCC(C1)N2c1cccc(OCCN2CCN(C(=O)N3CCC(c4ccc(NC5CCC(=O)NC5=O)cc4)CC3)CC2)c1 (racemic) [Example 80, rac-3-[4-[1-[4-[2-[3-[3-[3-amino-6-(2-hydroxyphenyl)pyridazin-4-yl]-3,8-diazabicyclo[3.2.1]octan-8-yl]phenoxy]ethyl]piperazine-1-carbonyl]-4-piperidyl]anilino]piperidine-2,6-dione] | 11 nM | 51% |
| Nc1nnc(-c2ccccc2O)cc1N1CC2CCC(C1)N2c1cccc(OCCN2CCN(C(=O)N3CCN(c4ccc(NC5CCC(=O)NC5=O)cc4)CC3)CC2)c1 (racemic) [Example 81, rac-3-[4-[4-[4-[2-[3-[3-[3-amino-6-(2-hydroxyphenyl)pyridazin-4-yl]-3,8-diazabicyclo[3.2.1]octan-8-yl]phenoxy]ethyl]piperazine-1-carbonyl]piperazin-1-yl]anilino]piperidine-2,6-dione] | 16 nM | 56% |
| Nc1nnc(-c2ccccc2O)cc1N1CC2CCC(C1)N2c1cccc(CN2CCC(C(=O)N3CCC(c4ccc(OC5CCC(=O)NC5=O)cc4)CC3)CC2)c1 (racemic) [Example 92, rac-3-[4-[1-[1-[[3-[3-[3-amino-6-(2-hydroxyphenyl)pyridazin-4-yl]-3,8-diazabicyclo[3.2.1]octan-8-yl]phenyl]methyl]piperidine-4-carbonyl]-4-piperidyl]phenoxy]piperidine-2,6-dione] | 17 nM | 41% |
| Nc1nnc(-c2ccccc2O)cc1N1CC2CCC(C1)N2c1cccc(CN2CCC(C(=O)N3CCC(c4ccc(NC5CCC(=O)NC5=O)cc4)CC3)CC2)c1 (racemic) [Example 93, rac-3-[4-[1-[1-[[3-[3-[3-amino-6-(2-hydroxyphenyl)pyridazin-4-yl]-3,8-diazabicyclo[3.2.1]octan-8-yl]phenyl]methyl]piperidine-4-carbonyl]-4-piperidyl]anilino]piperidine-2,6-dione] | 9 nM | 52% |
| Nc1nnc(-c2ccccc2O)cc1N1CC2CCC(C1)N2c1cccc(CN2CCC(C(=O)N3CCN(c4ccc(OC5CCC(=O)NC5=O)cc4)CC3)CC2)c1 (racemic) [Example 94, rac-3-[4-[4-[1-[[3-[3-[3-amino-6-(2-hydroxyphenyl)pyridazin-4-yl]-3,8-diazabicyclo[3.2.1]octan-8-yl]phenyl]methyl]piperidine-4-carbonyl]piperazin-1-yl]phenoxy]piperidine-2,6-dione] | 18 nM | 48% |
